Experimental data taken from patent publication US20230313199A1, “TARGET FOR MODULATING BODY MASS” (Massachusetts Institute of Technology, priority 2020, published 2023).

What was measured:
NTD of human MFSD7C [1] = target: T1, NTD of human MFSD7C (Homo sapiens, UniProt Q9UPI3); test: Heme absorbance-shift assay with wild-type NTD; assay type: binding
T1 construct: Plasmid harboring GST-His-tag-SUMO-NTD (amino acids 1-84); GST-His-tag-SUMO (N, cleaved yes); made in house; host or cells: Escherichia coli Lemo21(DE3)
T1 sequence (Q9UPI3 1-84): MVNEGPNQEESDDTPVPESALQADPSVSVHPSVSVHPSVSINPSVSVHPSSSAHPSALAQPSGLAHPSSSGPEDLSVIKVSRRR
Method: (§1) Heme absorbance-shift assay. Hemin was prepared fresh before each experiment. Approximately 20 mg of hemin (Sigma) was placed in a fresh tube and resuspended with 1 mL of DMSO. The hemin solution was slowly diluted while mixing with 1 mL of 2× buffer C (25 mM HEPES-NaOH pH 7.8, 10 mM NaCl), and aggregated hemin was eliminated by passing the solution through a 0.2 μm filter unit. Hemin concentration was determined by diluting the filtered solution with 1× buffer C 1:100 and using the extinction coefficient of 58,400 cm^−1M^−1 at 385 nm. For each reaction, the 200 μL reaction mix containing 100 μM hemin, 25 mM HEPES-NaOH pH 7.8, 10 mM NaCl, and various concentrations of wild-type or mutant NTD protein, was placed in a transparent 96-well plate. Absorbance intensity was measured using Tecan Infinite M200 Pro microplate reader, between 330 and 550 nm using 5 nm steps. The absorbance intensity for dissolved hemin was subtracted from absorbance intensity from hemin incubated with various concentrations of protein.

[2] = target: T2, MFSD7C interactions with ETC components (CYC1, NDUFA4, COX4i1, ATP5h, ATP5c1) (Mus musculus, UniProt Q91X85); test: Co-IP of HA-tagged MFSD7C with FLAG-tagged ETC components in transfected 293FT cells; assay type: cell-based, murine; settings: 10 μM or 40 μM heme for one hour before cell lysis, increasing level
T2 construct: expressed in transfected cells; host or cells: 293FT cells
T2 sequence (Q91X85 whole entry): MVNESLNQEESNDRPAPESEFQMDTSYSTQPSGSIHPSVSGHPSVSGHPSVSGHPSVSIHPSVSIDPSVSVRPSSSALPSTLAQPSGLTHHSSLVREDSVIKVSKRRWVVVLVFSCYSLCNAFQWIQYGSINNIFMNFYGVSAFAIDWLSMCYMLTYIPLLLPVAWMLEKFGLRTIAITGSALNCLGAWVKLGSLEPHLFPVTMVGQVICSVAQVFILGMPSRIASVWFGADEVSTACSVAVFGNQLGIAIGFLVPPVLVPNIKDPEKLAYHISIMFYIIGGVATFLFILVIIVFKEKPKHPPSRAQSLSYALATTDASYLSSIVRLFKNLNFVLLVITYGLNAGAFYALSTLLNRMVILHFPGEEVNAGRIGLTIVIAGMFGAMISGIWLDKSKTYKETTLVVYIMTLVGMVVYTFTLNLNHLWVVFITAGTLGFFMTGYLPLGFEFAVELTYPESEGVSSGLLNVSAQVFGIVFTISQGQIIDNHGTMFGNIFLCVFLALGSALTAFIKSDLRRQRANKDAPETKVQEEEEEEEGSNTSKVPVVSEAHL
Method: Co-transfection and immunoprecipitation. For co-IP, HA-tagged MFSD7C was co-transfected with FLAG-tagged HMOX1 (Origene Catalog No. MR203944), CYC1, COX4I1, NDUFA4, ATP5h, ATP5c1 into 293FT cells using TransIT®-LT1 Transfection Reagent (Mirus). Thirty-six hours after transfection, the cells were lysed using cold Lysis Buffer containing 20 mM Tris-HCl (pH 7.4), 150 mM NaCl, 0.1% NP-40, 10% glycerol, proteinase inhibitor (Sigma Catalog No. 4693132001), and phosphatase inhibitors (Sigma Catalog No. 4906845001). The clear supernatants from the lysate were incubated with M2-magnetic beads conjugated with anti-FLAG antibody (Sigma Catalog No. M8823) for 2 hours at 4° C. Then the beads were washed twice and eluted by the 3× FLAG peptides (Sigma Catalog No. F4799).
To determine the effect of heme on MFSD7C interactions with ETC components, HMOX1 or SERCA2b, 293FT cells were transiently transfected with HA-tagged murine MFSD7C and FLAG-tagged murine CYC1, NDUFA4, COX4i1, ATP5h, ATP5c1, HMOX1 or SERCA2b. 35 hrs later, co-transfected cells were incubated with DMSO (vehicle) or 10 μM or 40 μM of heme for one hour before lysis. Cell lysates were precipitated with anti-HA antibody, eluted with HA peptide, further precipitated with anti-FLAG antibody, eluted with FLAG peptide, and then subjected to Western blotting with anti-HA and anti-FLAG antibodies. […]

NTD of human MFSD7C [3] = target: T1, NTD of human MFSD7C; test: Isothermal titration calorimetry of NTD binding to heme
[4] = tested on: interactions between MFSD7C^ΔN and CYC1, NDUFA4, COX4i1, ATP5h and ATP5c1; test: Co-IP of HA-tagged MFSD7C^ΔN with ETC components; assay type: cell-based, murine; settings: heme treatment before lysis
Method: FIGS. 4A-4H show NTD of MFSD7C mediates heme effect on mitochondrial respiration. FIGS. 4A-4C show comparison of basal OCR (FIG. 4A), maximal OCR (FIG. 4B) and ECAR (FIG. 4C) of THP-1, 4B8, and 4B8^FL and 4B8^ΔN cells treated with vehicle or heme for 1 hour (n=18 separate experiments). […] Cells were incubated with FPT for 6 hrs, washed and reseeded in poly-lysine coated glass bottom dishes. After cells attached to the glass, medium containing 40 μM heme was added. Cells in the same field were imaged immediately and again 1 hour later. Relative FPT fluorescent intensities, normalized to THP-1, from three experiments are shown. (n=3 independent experiments). […] THP-1 cells were co-cultured with 4B8, 4B8^FL, or 4B8^ΔN in FPT solution for 6 hrs, washed and reseeded in poly-lysine coated glass bottom dishes. Cells were imaged by confocal laser-scanning microscopy. […] Representative images from three experiments are shown. Scale bar: 10 μm. […] THP-1, 4B8, 4B8^FL and 4B8^ΔN cells were treated with vehicle or heme for 1 hour and MMP was measured by using JC-10 Mitochondrial Membrane Potential Assay Kit followed by flow cytometry. […] Shown are representative Western blotting data (FIG. 4G) and quantification of band intensities from n=3 independent experiments (FIG. 4H). P-values were calculated using two-way ANOVA (*p<0.05, **p<0.01, ***p<0.005). […]

mutant HP motif peptide = test: Heme absorbance-shift assay with mutant HP motif peptide; assay type: binding; settings: both histidine residues in the HP motif peptide mutated to alanine
Method: Peptide synthesis. Wild-type HP motif peptide (HPSALAQPSGLAHP) and mutant HP motif peptide (APSALAQPSGLAAP) were synthesized using solid-phase synthesis and purified using HPLC by the Biopolymers & Proteomics Core at the Koch Institute for Integrative Cancer Research.
as §1

MCF7 cells = test: Oxygen consumption rate, parental MCF7 cells; assay type: cell-based, human; settings: 40 μM heme for 1 hour

SMILES: C=CC1=C(C)c2cc3[n-]c(cc4[n-]c(cc5nc(cc1n2)C(C)=C5C=C)c(C)c4CCC(=O)O)c(CCC(=O)O)c3C.[Fe+2] [heme]
- absorbance shift of heme (Soret band, Q band) (NTD of human MFSD7C [1]; 100 μM heme, various concentrations of wild-type NTD): concentration-dependent increase in the intensities of the Soret band (415 nm) and the Q band (535 nm)
- heme binding sites per NTD from rate of increase of Soret band intensities (NTD of human MFSD7C [1]; 415 nm absorbance versus NTD concentration): two or more heme binding sites per NTD
- ETC components co-precipitated with MFSD7C [2]: less or very little ETC components co-precipitated with MFSD7C
- heme molecules bound by the NTD (NTD of human MFSD7C [3]; ITC): three
- heme molecules the NTD is capable of binding (NTD of human MFSD7C [3]; overall conclusion of Example 2): 2-3
- disruption of interactions between MFSD7C^ΔN and ETC components (co-IP) [4]: failed to disrupt
- absorbance shift of heme (mutant HP motif peptide): abolished
- OCR (MCF7 cells): significantly stimulated
